Experimental data published in ChEMBL document CHEMBL2429717 (J Med Chem, 2013).

Columns and labels:
[1] = Induction of interphase microtubule depolymerization in rat A10 cells; assay type: cell-based
[2] = tested on: MDA-MB-435; test: Cytotoxicity against human MDA-MB-435 cells assessed as growth inhibition; assay type: functional, cell-based
[3] = Induction of interphase microtubule depolymerization in rat A10 cells after 18 to 24 hrs by DAPI staining-based indirect immunofluorescence assay; assay type: cell-based
[4] = tested on: Jurkat; test: Cytotoxicity against human Jurkat cells assessed as growth inhibition; assay type: functional, cell-based
[5] = tested on: MDA-MB-435; test: Cytotoxicity against human MDA-MB-435 cells assessed as growth inhibition after 72 hrs by SRB assay; assay type: functional, cell-based; settings: MDA-MB-435, 72 h
[6] = target: Tubulin; test: Displacement of [3H]colchicine from tubulin (unknown origin); assay type: protein-complex assay, Homo sapiens

Structure (SMILES) | EC50 [1] [µM] | pEC50 [1] | IC50 ([2]; read-out: IC50) [µM] | IC50 ([2]; read-out: pIC50 (converted)) [µM] | EC50 [3] [µM] | pEC50 [3] | also measured
CCOC(=O)c1[nH]c(Br)c(-c2ccc(SC)cc2)c1Br | 19 | 4.73 | 0.626 | 0.631 | – | – | –
CCOC(=O)c1[nH]c(C(=O)c2ccc(OC)cc2)c(-c2ccc(OC)cc2)c1Br | 500 | 3.3 | 100 | 100 | – | – | –
CCOC(=O)c1[nH]c(Br)c(-c2ccc(C)cc2)c1Br | 75 | 4.12 | – | 2.24 | – | – | –
COc1ccc(-c2c(Br)[nH]c(C(=O)OCCCN(C)C)c2Br)cc1OC | – | – | – | – | 50 | 4.3 | –
CCOC(=O)c1[nH]c(Br)c(-c2ccc3c(c2)OCCO3)c1Br | 21 | 4.68 | 4.4 | 4.37 | – | – | –
CCOC(=O)c1c[nH]c(C(=O)c2ccc(OC)cc2)c1-c1ccc(OC)cc1 | 500 | 3.3 | 100 | 100 | – | – | –
CCOC(=O)c1[nH]cc(-c2ccc(OC)cc2)c1-c1ccc(OC)cc1 | 500 | 3.3 | – | – | – | – | –
CCOC(=O)c1[nH]c(Br)c(-c2ccc3cc(OCC)ccc3c2)c1Br | 33 | 4.48 | 2 | 2 | – | – | –
COc1cccc(N(C)c2nc(C)nc3c2C[C@@H](C)C3)c1 | 6.9 | 5.16 | 0.402 | 0.398 | – | – | –
COc1cc2c(c(N)c1OC)C(=O)/C(=C/c1cc(C)c(O)c(C)c1)C2 | – | – | – | – | – | – | IC50 ([4]; read-out: IC50): 0.001 µM; IC50 ([4]; read-out: pIC50 (converted)): 0.001 µM
CCCCOC(=O)c1[nH]c(Br)c(-c2ccc(OC)c(OC)c2)c1Br | – | – | – | – | 33 | 4.48 | –
COC(=O)c1[nH]c(Br)c(-c2ccc(OC)c(OC)c2)c1Br | – | – | – | – | 5 | 5.3 | –
COc1ccc(Nc2nc(C)nc3c2C[C@@H](C)C3)cc1 | 520 | 3.28 | 51 | 51.3 | – | – | –
CCOC(=O)c1[nH]c(Br)c(-c2ccc(OC)cc2)c1Br | 7 | 5.15 | 0.843 | 0.851 | – | – | –
COc1ccc(N(C)c2ncnc3cc[nH]c23)cc1 | – | – | – | – | 1.4 | 5.85 | IC50 ([5]; read-out: IC50): 0.193 µM; IC50 ([5]; read-out: pIC50 (converted)): 0.195 µM
Cc1nc2c(c(N(C)c3ccccc3)n1)C[C@H](C)C2 | 43 | 4.37 | 1.67 | 1.66 | – | – | –
CCOC(=O)c1[nH]c(Br)c(-c2ccc3c(c2)OCO3)c1Br | 30 | 4.53 | 1.8 | 1.82 | – | – | –
COc1ccc(-c2c(Br)[nH]c(C(=O)OCc3ccccc3)c2Br)cc1OC | – | – | – | – | 100 | 4 | –
CCCCCCOC(=O)c1[nH]c(Br)c(-c2ccc(OC)c(OC)c2)c1Br | – | – | – | – | 14 | 4.85 | –
COc1ccc(-c2c(Br)[nH]c(C(=O)OCCCN(C)C)c2Br)cc1OC.Cl | – | – | – | – | 100 | 4 | –
CCOC(=O)c1[nH]c(Br)c(-c2ccc(Br)cc2)c1Br | 94 | 4.03 | – | – | – | – | –
O=C1/C(=C/c2cc(Cl)cc(Cl)c2)Cc2cc(O)c(O)cc21 | – | – | – | – | – | – | IC50 ([4]; read-out: IC50): > 50 µM; IC50 ([4]; read-out: pIC50 (converted)): 100 µM
CCOC(=O)c1c(-c2ccc(OC)c(OC)c2)c(-c2ccc(OC)c(OC)c2)cn1CCc1ccc(OC)c(OC)c1 | 500 | 3.3 | 100 | 100 | – | – | –
COc1ccc(-c2oc3cc(O)c(OC)cc3c(=O)c2OC)cc1O | – | – | – | – | – | – | Kd [6]: 6 µM
CCOC(=O)c1[nH]c(Br)c(-c2ccc(Cl)c(Cl)c2)c1Br | 9.9 | 5 | 0.806 | 0.813 | – | – | –
COc1cccc(N(C)c2nc(C)nc3c2C[C@H](C)C3)c1 | 1.6 | 5.8 | 0.095 | 0.0955 | – | – | –

Structure (SMILES) | EC50 [1] [µM] | pEC50 [1] | IC50 ([2]; read-out: IC50) [µM] | IC50 ([2]; read-out: pIC50 (converted)) [µM] | EC50 [3] [µM] | pEC50 [3] | also measured
COc1ccc(C(=O)c2[nH]c(C(=O)c3ccc(OC)cc3)c(-c3ccc(OC)cc3)c2-c2ccc(OC)cc2)cc1 | 500 | 3.3 | 100 | 100 | – | – | –
CCOC(=O)c1[nH]c(Br)c(-c2cc(OC)c(OC)c(OC)c2)c1Br | 71 | 4.15 | – | – | – | – | –
CCCOC(=O)c1[nH]c(Br)c(-c2ccc(OC)c(OC)c2)c1Br | – | – | – | – | 3.3 | 5.48 | –
CCOC(=O)c1[nH]c(Br)c(-c2cccc3ccccc23)c1Br | 7 | 5.15 | 3.2 | 3.24 | – | – | –
CCOC(=O)c1[nH]c(Br)c(-c2c[nH]c3ccccc23)c1Br | 18 | 4.75 | 2 | 2 | – | – | –
CCOC(=O)c1[nH]c(Br)c(-c2cccc(OC)c2)c1Br | 2.4 | 5.62 | 0.633 | 0.631 | – | – | –
CCOC(=O)c1[nH]c(Br)c(-c2ccc(OC)c(F)c2)c1Br | 14 | 4.85 | 0.539 | 0.537 | – | – | –
CCOC(=O)c1[nH]c(C(=O)c2ccc(OC)cc2)c(-c2ccc(OC)cc2)c1-c1ccc(OC)cc1 | 500 | 3.3 | 100 | 100 | – | – | –
COc1ccc([C@H]2[C@H](c3cc(OC)c(OC)c(OC)c3)C(C)=NN2C(C)=O)cc1O | 4.5 | 5.35 | – | – | – | – | –
CCOC(=O)c1[nH]c(Br)c(-c2ccc(OC(F)(F)F)cc2)c1Br | 27 | 4.57 | 1.7 | 1.7 | – | – | –
COc1ccc(-c2c(Br)[nH]c(C(=O)OC(C)C)c2Br)cc1OC | – | – | – | – | 3.6 | 5.44 | –
COc1ccc(N(C)c2nc(C)nc3cc(C)[nH]c23)cc1 | – | – | – | – | 0.22 | 6.66 | IC50 ([5]; read-out: IC50): 0.03 µM; IC50 ([5]; read-out: pIC50 (converted)): 0.0302 µM
COc1ccc(OC(=O)c2[nH]c(Br)c(-c3ccc(OC)c(OC)c3)c2Br)cc1 | – | – | – | – | 100 | 4 | –
CCOC(=O)c1[nH]c(Br)c(-c2cc(OC)c(OC)cc2Br)c1Br | 14 | 4.85 | 2.6 | 2.63 | – | – | –
CCOC(=O)c1cc(-c2ccc(OC)cc2)c(C(=O)c2ccc(OC)cc2)[nH]1 | 100 | 4 | 3 | 3.02 | – | – | –
COc1ccc(-c2c(Br)[nH]c(C(=O)OCCN(C)C)c2Br)cc1OC.Cl | – | – | – | – | 100 | 4 | –
COc1ccc(-c2c(Br)[nH]c(C(=O)OC(C)(C)C)c2Br)cc1OC | – | – | – | – | 25 | 4.6 | –
CCOC(=O)c1[nH]c(Br)c(-c2ccccc2)c1Br | 167 | 3.78 | – | 10.2 | – | – | –
COc1ccc(-c2oc3c(OC)c(OC)c(OC)c(O)c3c(=O)c2OC)cc1O | – | – | – | – | – | – | Kd [6]: 0.13 µM
Cc1nc2c(c(N(C)c3ccccc3)n1)C[C@@H](C)C2 | 520 | 3.28 | 7.1 | 7.08 | – | – | –
COc1ccc(-c2c(Br)[nH]c(C(=O)OCCN(C)C)c2Br)cc1OC | – | – | – | – | 50 | 4.3 | –
COc1ccc2c(c1)CCCN2c1nc(C)nc2cc[nH]c12 | – | – | – | – | 0.23 | 6.64 | IC50 ([5]; read-out: IC50): 0.043 µM; IC50 ([5]; read-out: pIC50 (converted)): 0.0427 µM
COc1ccc(N(C)c2nc(N)nc3cc(C)[nH]c23)cc1 | – | – | – | – | 8.4 | 5.08 | IC50 ([5]; read-out: IC50): 0.298 µM; IC50 ([5]; read-out: pIC50 (converted)): 0.295 µM
COc1ccc(N(C)c2nc(C)nc3cc[nH]c23)cc1 | – | – | – | – | 1.2 | 5.92 | IC50 ([5]; read-out: IC50): 0.097 µM; IC50 ([5]; read-out: pIC50 (converted)): 0.0955 µM
CCOC(=O)c1[nH]c(Br)c(-c2ccc(Cl)cc2)c1Br | 83 | 4.08 | – | – | – | – | –
O=c1c(O)c(-c2ccc(O)cc2O)oc2cc(O)cc(O)c12 [MORIN] | – | – | – | – | – | – | Kd [6]: > 100 µM; pKd [6]: 3.7
